Calls of active or inactive are those of the source.
Assays:
[1] = molecular target: T1, Insulin-degrading enzyme (Homo sapiens, UniProt P14735); test: activators of endogenous IDE in HEK cells, dose response, cell-based, fluorescence polarization (AID 588439); format: functional
T1 sequence (P14735 whole entry): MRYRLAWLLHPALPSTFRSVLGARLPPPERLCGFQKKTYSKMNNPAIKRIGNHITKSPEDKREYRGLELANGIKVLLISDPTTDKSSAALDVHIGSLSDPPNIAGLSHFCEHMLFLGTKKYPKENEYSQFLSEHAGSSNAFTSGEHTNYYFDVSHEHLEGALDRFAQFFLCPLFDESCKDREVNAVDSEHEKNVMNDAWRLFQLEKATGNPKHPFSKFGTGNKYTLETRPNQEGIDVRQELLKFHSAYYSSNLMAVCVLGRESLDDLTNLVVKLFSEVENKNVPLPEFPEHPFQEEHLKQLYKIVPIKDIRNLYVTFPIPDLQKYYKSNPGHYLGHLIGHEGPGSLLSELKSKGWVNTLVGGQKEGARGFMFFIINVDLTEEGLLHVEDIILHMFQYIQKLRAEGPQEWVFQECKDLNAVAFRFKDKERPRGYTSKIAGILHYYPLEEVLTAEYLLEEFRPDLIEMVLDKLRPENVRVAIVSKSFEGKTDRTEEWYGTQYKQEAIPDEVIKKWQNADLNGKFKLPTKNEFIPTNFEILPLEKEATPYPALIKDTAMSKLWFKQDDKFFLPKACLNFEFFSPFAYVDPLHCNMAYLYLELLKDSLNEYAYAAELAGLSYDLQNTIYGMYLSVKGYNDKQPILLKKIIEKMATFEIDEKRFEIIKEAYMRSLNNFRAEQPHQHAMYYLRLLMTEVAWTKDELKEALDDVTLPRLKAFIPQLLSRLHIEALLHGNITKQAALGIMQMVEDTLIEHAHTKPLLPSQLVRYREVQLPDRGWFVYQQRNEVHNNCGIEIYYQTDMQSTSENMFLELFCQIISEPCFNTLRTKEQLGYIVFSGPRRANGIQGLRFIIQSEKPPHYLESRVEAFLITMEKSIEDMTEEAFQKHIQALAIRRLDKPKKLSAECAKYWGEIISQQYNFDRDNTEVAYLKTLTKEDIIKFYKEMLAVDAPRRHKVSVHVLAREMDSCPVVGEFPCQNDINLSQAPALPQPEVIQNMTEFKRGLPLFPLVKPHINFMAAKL

[2] = molecular target: T2, Short transient receptor potential channel 4 (Mus musculus, UniProt Q9QUQ5); test: mouse TRPC4 channel activators, dose response, cell-based, HEK293 TRPC4/mu-opioid, Fluo-4 calcium (AID 434937); format: functional
T2 sequence (Q9QUQ5 whole entry): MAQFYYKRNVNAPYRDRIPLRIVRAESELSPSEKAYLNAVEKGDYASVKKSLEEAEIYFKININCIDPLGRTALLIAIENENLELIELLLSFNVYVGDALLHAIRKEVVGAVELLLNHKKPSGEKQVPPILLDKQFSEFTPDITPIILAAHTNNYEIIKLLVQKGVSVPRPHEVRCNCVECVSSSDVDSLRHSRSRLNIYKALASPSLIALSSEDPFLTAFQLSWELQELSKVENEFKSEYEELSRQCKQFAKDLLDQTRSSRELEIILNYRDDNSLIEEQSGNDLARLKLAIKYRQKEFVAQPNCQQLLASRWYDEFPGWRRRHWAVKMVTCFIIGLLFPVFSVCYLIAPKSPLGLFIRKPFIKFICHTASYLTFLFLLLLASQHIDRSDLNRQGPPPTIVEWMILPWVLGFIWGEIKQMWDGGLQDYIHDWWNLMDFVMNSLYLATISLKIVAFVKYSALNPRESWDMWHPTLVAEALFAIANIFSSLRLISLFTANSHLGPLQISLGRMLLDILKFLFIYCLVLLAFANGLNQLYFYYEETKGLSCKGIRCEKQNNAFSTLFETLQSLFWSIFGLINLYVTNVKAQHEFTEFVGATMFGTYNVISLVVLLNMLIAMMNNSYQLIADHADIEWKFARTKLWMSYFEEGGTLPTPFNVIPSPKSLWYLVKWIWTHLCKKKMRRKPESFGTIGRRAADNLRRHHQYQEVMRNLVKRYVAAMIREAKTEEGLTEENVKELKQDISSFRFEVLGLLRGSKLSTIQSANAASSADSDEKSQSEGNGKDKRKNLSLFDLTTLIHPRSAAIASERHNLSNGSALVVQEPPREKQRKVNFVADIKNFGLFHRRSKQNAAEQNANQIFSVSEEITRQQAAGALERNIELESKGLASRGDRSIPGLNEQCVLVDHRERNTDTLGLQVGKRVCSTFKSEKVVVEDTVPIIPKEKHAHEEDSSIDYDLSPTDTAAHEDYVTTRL

[3] = cells; format: functional, cell-based
[4] = test system: HeLa; test: Cytotoxicity counterscreen assay for transcriptional activators of heat shock protein 70 (Hsp70). [Related pubchem assays: 1203, 1252 ]; format: functional; conditions: Homo sapiens;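 also: cells exposed to compound for 16 hours before readout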
[5] = inhibitors of SNCA 5'UTR-driven reporter translation, confirmation, H4 neuroglioma cells, luminescence (AID 1988); format: functional, cell-based

Row | Structure (SMILES) | EC50 [1] | EC50 [2] | EC50 [3] | CC50 [4] | EC50 [5]
1 | CNC[C@H](Cc1ccccc1)NC[C@@H](Cc1cccc2ccccc12)NCCc1ccc(C)cc1 | 7.52 µM (active) | 9.44 µM (active) | – | – | –
2 | CCN1C(=Cc2sc3ccccc3[n+]2C)C=Cc2cccc(C)c21 | – | – | > 12 µM (not active) | 1.87 µM (active) | < 0.1 µM (active)

Source: ChEMBL document CHEMBL1201862, “PubChem BioAssay data set” (2004)
